{"source": "patent US20050222100A1", "about": "(priority 2002, published 2005)", "experiment": "Pilot study: irregular vaginal bleeding", "type": "in vivo, post-menopausal women", "conditions": "2.5 mg tibolone per day added to 20 mg tamoxifen per day", "from_the_text": "The women, all below the age of 65 years, were postmenopausal for at least three years at the time of diagnosis. Their follicle stimulating hormone (FSH) levels were greater than 40 IU/L and their estradiol (E2) levels were below 20 pg/mL.", "data": [{"compound": "C#C[C@]1(O)CC[C@H]2[C@@H]3[C@H](C)CC4=C(CCC(=O)C4)[C@H]3CC[C@@]21C", "note": "[Tibolone, (7α, 17α)-17-hydroxy-7-methyl-19-nor-17-pregn-5(10)-en-20-yn-3-one]", "values": [{"measurement": "effect on irregular bleeding", "result": "minimal effect"}]}]}
